Experimental data taken from PMC10053003, “Study on Pharmacokinetics and Metabolic Profiles of Novel Potential PLK-1 Inhibitors by UHPLC-MS/MS Combined with UHPLC-Q-Orbitrap/HRMS” (Molecules, 2023).
Like-named read-outs stand apart in the source and are kept apart here. One block for each compound: values may come before it.

Assays:
[1] = assay type: in vitro ADME, human; details: for HLM (%) relative abundance (area ratio): incubation of 7a in human liver microsomes with NADPH
[2] = assay type: in vitro ADME; details: incubation of 7a in rat liver microsomes with NADPH
Procedure: Liver microsomes were used to investigate the metabolism clearance of 7a. In addition, 5 µL of rat liver microsome (20 mg/mL), 2 µL of 7a or onvansertib (100 µM), and 173 µL of PBS buffer (0.1 M, pH 7.4) were added to 1.5 mL Eppendorf tubes. After pre-incubation for 10 min at 37 °C, the reaction was initiated by adding an NADPH-generating system (20 µL) into the microsomal suspension. A system without NADPH was set as a negative control. After incubations for 10 min, 30 min, or 60 min, 400 µL of ice acetonitrile was added to quench the reaction. The supernatants were injected into Q Exactive ™ combined quadrupole Orbitrap mass spectrometer (Thermo Scientific, Waltham, MA, USA) for metabolite profiling and identification. The concentration of the compound to be measured at 0 min was defined as 100%, and the concentration at other times was converted into a residual percentage.

PLK1 kinase = molecular target: T1, PLK1 kinase (Homo sapiens, UniProt P53350); experiment: PLK1 kinase inhibition activity; assay type: biochemical
T1 construct: purchased CarnaBio 05–157
T1 sequence (P53350 whole entry): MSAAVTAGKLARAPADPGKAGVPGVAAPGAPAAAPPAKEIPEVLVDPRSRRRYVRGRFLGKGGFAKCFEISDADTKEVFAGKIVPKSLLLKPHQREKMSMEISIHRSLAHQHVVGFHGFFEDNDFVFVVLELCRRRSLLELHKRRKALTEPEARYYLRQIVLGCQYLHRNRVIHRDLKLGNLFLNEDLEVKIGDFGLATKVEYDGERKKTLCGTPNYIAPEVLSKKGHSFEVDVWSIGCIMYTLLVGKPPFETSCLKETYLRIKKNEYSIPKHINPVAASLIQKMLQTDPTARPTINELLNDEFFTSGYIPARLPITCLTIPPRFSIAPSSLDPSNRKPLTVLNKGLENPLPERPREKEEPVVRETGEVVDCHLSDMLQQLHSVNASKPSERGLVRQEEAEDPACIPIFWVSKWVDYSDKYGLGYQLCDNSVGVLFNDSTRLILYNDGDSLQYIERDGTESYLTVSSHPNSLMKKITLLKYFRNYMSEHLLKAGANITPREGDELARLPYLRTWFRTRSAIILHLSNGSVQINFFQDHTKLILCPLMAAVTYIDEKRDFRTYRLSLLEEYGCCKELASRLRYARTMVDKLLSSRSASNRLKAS
Procedure: The compounds were diluted at a 1:3 ratio on a 384-well plate with the highest concentration of 1 μM, and a total of 10 concentration points were tested. The mixture of PLK1 kinase and peptide substrate (5 μL) was added to each well. […] The results were tested by EnVision and analyzed using XLFIT5 software.

HCT-116 cells = experiment: Cell proliferation inhibition, HCT-116 (ATPlite); assay type: cell-based; details: Homo sapiens, 72 h incubation, read-out: HCT-116 IC50 (cell viability)
Procedure: (§1) HCT-116 or NCI-H2030 cells were seeded in 96-well plates at a density of 720/well and cultured overnight in a 5% CO2 incubator at 37 ± 1 °C. The compounds were diluted and added at a ratio of 1:3. After incubation for 72 h, ATPlite 1step Luminescence was added and incubated in the dark for 3 min, then was vortexed at 500 rpm for 2 min, and the luminous intensity was detected by the microplate reader and the cell inhibition was calculated as follows:Inhibition (%) = 100 − (Lum compound − Lum medium)/(Lum control − Lum medium) × 100%

NCI-H2030 cells = experiment: Cell proliferation inhibition, NCI-H2030 (ATPlite); assay type: cell-based; details: Homo sapiens, 72 h incubation, read-out: NCI-H2030 IC50 (cell viability)
Procedure: as §1

[3] = Pharmacokinetic study in rats after oral administration; assay type: in vivo, Sprague-Dawley rats; details: for Cmax / Tmax / half-life / bioavailability / AUC(0-t): Sprague-Dawley, rat, plasma; for AUC(0-t): read-out: AUC0–24h
Procedure: Sprague-Dawley rats (8 weeks old, 180–220 g) were provided by Pengyue Laboratory Animal Technology Co., Ltd (Jinan, Shandong, China). All rats were fed adaptively for 1 week (20 °C–24 °C, 50%–70% relative humidity, 12/12 h light/dark cycle). A standard diet and boiled water were provided. The rats fasted for over 12h with free access to water before the study. Furthermore, 7a was dissolved DMSO (5%) and then diluted with saline. The rats were given 7a by gavage at 5 mg/kg and 30 mg/kg. In addition, 200 μL of blood was collected into a 1.5 mL tube added with heparin at 5 min, 15 min, 30 min, 1 h, 2 h, 4 h, 6 h, 8 h, 10 h, and 24 h after administration. Plasma was acquired by centrifugation (8000 rpm, 5 min) and all samples were immediately stored at −20 °C immediately. The guidelines of the Animal Ethics Committee of Luye Pharma Group Ltd. were strictly enforced during the animal experiments to ensure animal welfare.
(§2) The main pharmacokinetic parameters were calculated using Phoenix WinNonlin 7.0 via a non-compartmental model (Pharsight, Mountain View, CA). […] Data were presented as mean ± SD.

[4] = Pharmacokinetics in rats after intravenous administration; assay type: in vivo; details: Sprague-Dawley, rat, plasma, i.v. 1 mg/kg
Procedure: The pharmacokinetic characteristics of 7a were then evaluated successfully with the validated UHPLC-MS/MS method. […] The AUC0–24h was about 517 and 3192 h × nmol/L at the doses of 5 and 30 mg/kg, respectively. The tmax was approximately 2 h, and t1/2 was 5 h. In the dose range of 5–30 mg/kg, the pharmacokinetics of 7a were almost linear. The mean plasma concentration-time curve of 7a after a single intravenous administration (1 mg/kg) and the major pharmacokinetic parameters can be found in Figure S14 and Table S1.
as §2
Figure S12. 19F NMR (400 MHz, DMSO) of compound 7a: δ -56.89 ppm.
Figure S13. Mass spectrum of compound 7a (m/z 500.2).
Figure S14. Mean concentration-time curves of compound 7a after intravenous administration in rats (1 mg/kg).
Data were presented as mean ± SD, n=3.
Table S1. Main pharmacokinetics parameters of compound 7a after intravenous administration (mean ± SD, n=3).
T (h) C0 AUC0-t V (L/kg) Cl(L/h/kg) […]

[5] = Stability of 7a in rat plasma (QC samples, UHPLC-MS/MS); assay type: in vitro ADME
Procedure: QC samples were stored under different conditions, such as room temperature for 4 h, frozen-thawed for 3 cycles, frozen at −20 °C for 7 days, or stored in an auto-sampler for 24 h. The sample concentrations were calculated by the following calibration curve. The RE (%) and RSD (%) should be less than ±15%.

[6] = both sexes, oral 5 mg/kg, mean of male and female rats
[7] = both sexes, oral 30 mg/kg, mean of male and female rats
[8] = both sexes, oral, rats, doses 5–30 mg/kg, overall statement
[9] = autosampler 4 °C for 24 h, nominal 3 nM
[10] = autosampler 4 °C for 24 h, nominal 300 nM
[11] = autosampler 4 °C for 24 h, nominal 750 nM
[12] = rat plasma, freeze −20 °C for 7 days, nominal 3 nM
[13] = rat plasma, freeze −20 °C for 7 days, nominal 300 nM
[14] = rat plasma, freeze −20 °C for 7 days, nominal 750 nM
[15] = rat plasma, freeze-thaw for 3 cycles, nominal 3 nM
[16] = rat plasma, freeze-thaw for 3 cycles, nominal 300 nM
[17] = rat plasma, freeze-thaw for 3 cycles, nominal 750 nM
[18] = rat plasma, room temperature for 4 h, nominal 3 nM
[19] = rat plasma, room temperature for 4 h, nominal 300 nM
[20] = rat plasma, room temperature for 4 h, nominal 750 nM

HLM (%) relative abundance (area ratio) [1]: 34.76% | RLM (%) relative abundance (area ratio) [2]: 6.53%
Structure (SMILES): Cn1c(-c2ccnc(Nc3cc(N4CCNCC4)ccc3OC(F)(F)F)n2)cc2c(=O)[nH]ccc21 [M2]

IC50 (PLK1 kinase; read-out: PLK1 inhibition IC50): 4.07 nM | IC50 (HCT-116 cells): 62.8 nM | IC50 (NCI-H2030 cells): 74.7 nM
Structure (SMILES): CN1CCN(c2ccc(OC(F)(F)F)c(Nc3nccc(-c4cc5c(n4C)CCNC5=O)n3)c2)CC1 [compound 25, reference compound]

IC50 (PLK1 kinase): 0.89 nM | Cmax ([3]; oral 5 mg/kg, female rats): 102 ± 25 nM | Tmax ([3]; oral 5 mg/kg, female rats): 0.8 ± 1 h | half-life ([3]; oral 5 mg/kg, female rats): 4.6 ± 1.4 h | bioavailability ([3]; oral 5 mg/kg, female rats, read-out: F): 19.9% | Cmax ([3]; oral 5 mg/kg, male rats): 87 ± 45 nM | Tmax ([3]; oral 5 mg/kg, male rats): 3 ± 2.6 h | half-life ([3]; oral 5 mg/kg, male rats): 4.4 ± 0.9 h | bioavailability ([3]; oral 5 mg/kg, male rats, read-out: F): 23.9% | Cmax ([3]; oral 30 mg/kg, female rats): 428 ± 90 nM | Tmax ([3]; oral 30 mg/kg, female rats): 2.3 ± 1.5 h | half-life ([3]; oral 30 mg/kg, female rats): 6.1 ± 0.9 h | bioavailability ([3]; oral 30 mg/kg, female rats, read-out: F): 22.3% | Cmax ([3]; oral 30 mg/kg, male rats): 435 ± 81 nM | Tmax ([3]; oral 30 mg/kg, male rats): 2 ± 1.9 h | half-life ([3]; oral 30 mg/kg, male rats): 3.7 ± 1.3 h | bioavailability ([3]; oral 30 mg/kg, male rats, read-out: F): 22.7% | AUC(0-t) ([3]; both sexes, po, 5 mg/kg, oral 5 mg/kg, mean of male and female rats): ~0.517 µM·h | AUC(0-t) ([3]; both sexes, po, 30 mg/kg, oral 30 mg/kg, mean of male and female rats): ~3.19 µM·h | bioavailability ([3]; both sexes, po, rats, overall statement, read-out: oral bioavailability (F)): ~22% | Cmax [3, 6]: 95 ± 33 nM | Tmax [3, 6]: 1.9 ± 2.1 h | half-life [3, 6]: 4.5 ± 1.1 h | bioavailability ([3]; both sexes, oral 5 mg/kg, mean of male and female rats, read-out: F): 21.9% | Cmax [3, 7]: 432 ± 77 nM | Tmax [3, 7]: 2.2 ± 1.6 h | half-life [3, 7]: 5.1 ± 1.6 h | bioavailability ([3]; both sexes, oral 30 mg/kg, mean of male and female rats, read-out: F): 22.5% | Tmax [3, 8]: ~2 h | half-life [3, 8]: 5 h | AUC(0-t) ([3]; female, po, 5 mg/kg, oral 5 mg/kg, female rats): 0.469 ± 0.064 µM·h | AUC(0-t) ([3]; female, po, 30 mg/kg, oral 30 mg/kg, female rats): 3.16 ± 1.02 µM·h | AUC(0-t) ([3]; male, po, 5 mg/kg, oral 5 mg/kg, male rats): 0.565 ± 0.132 µM·h | AUC(0-t) ([3]; male, po, 30 mg/kg, oral 30 mg/kg, male rats): 3.22 ± 1.04 µM·h | AUC0–24h ([3]; oral 30 mg/kg, mean of male and female rats, 30 mg/kg): 3.192 ± 0.922 µM·h | IC50 (HCT-116 cells): 30.6 nM | AUC(0-t) [4]: 0.472 ± 0.032 µM·h | C0 [4]: 481 ± 42 nM | clearance [4]: 70 mL/min/kg | half-life [4]: 2.4 ± 0.6 h | Vd ([4]; read-out: Vss): 8.5 ± 1.3 L/kg | stability of the parent in HLM ([1]; human liver microsomes): stable | HLM (%) relative abundance (area ratio) [1]: 43.73% | RLM (%) relative abundance (area ratio) [2]: 5.34% | Measured Concentrations [5, 9]: 3.05 ± 0.10 nM | RE (stability) [5, 9]: 1.78% | Measured Concentrations [5, 10]: 280 ± 11.9 nM | RE (stability) [5, 10]: −6.67% | Measured Concentrations [5, 11]: 701 ± 46.5 nM | RE (stability) [5, 11]: −6.58% | Measured Concentrations [5, 12]: 2.55 ± 0.13 nM | RE (stability) [5, 12]: −14.9% | Measured Concentrations [5, 13]: 272 ± 9.67 nM | RE (stability) [5, 13]: −9.33% | Measured Concentrations [5, 14]: 685 ± 34.7 nM | RE (stability) [5, 14]: −8.71% | Measured Concentrations [5, 15]: 2.73 ± 0.21 nM | RE (stability) [5, 15]: −9.17% | Measured Concentrations [5, 16]: 260 ± 10.8 nM | RE (stability) [5, 16]: −13.4% | Measured Concentrations [5, 17]: 649 ± 24.2 nM | RE (stability) [5, 17]: −13.5% | Measured Concentrations [5, 18]: 2.59 ± 0.17 nM | RE (stability) [5, 18]: −13.7% | Measured Concentrations [5, 19]: 261 ± 4.94 nM | RE (stability) [5, 19]: −13% | Measured Concentrations [5, 20]: 649 ± 17.9 nM | RE (stability) [5, 20]: −13.4% | IC50 (NCI-H2030 cells): 38.5 nM
Structure (SMILES): CN1CCN(c2ccc(OC(F)(F)F)c(Nc3nccc(-c4cc5c(=O)[nH]ccc5n4C)n3)c2)CC1 [compound 7a, 1-methyl-2-(2-((5-(4-methylpiperazin-1-yl)-2-(trifluoromethoxy)phenyl)amino)pyrimidin-4-yl)-1,5-dihydro-4H-pyrrolo[3,2-c] pyridin-4-one]
PLK-1 activity and cytotoxicity, times higher than compound 25 (PLK1 kinase; relative to compound 25): more than 4 times
